From the NIST ThermoML archive (doi:10.1021/je060271a)

Settings: 343.14 K, Liquid, Vibrating tube method

CCCC(=O)OCC(COC(=O)CCC)(COC(=O)CCC)COC(=O)CCC [pentaerythritol tetrabutyrate]
Settings | mass density [kg/m3]
773.4 kPa | 1008.6
794.9 kPa | 1008.7
818 kPa | 1008.6
837.8 kPa | 1008.5
863.2 kPa | 1008.6
890.1 kPa | 1008.8
913.7 kPa | 1008.7
943.4 kPa | 1008.7
969.3 kPa | 1008.9
1002.1 kPa | 1008.8
1036.5 kPa | 1008.8
1072.5 kPa | 1008.9
1104.2 kPa | 1008.8
1144 kPa | 1008.9
1187.1 kPa | 1008.9
1225.3 kPa | 1009
1274.2 kPa | 1009
1324.7 kPa | 1009
1369.5 kPa | 1009.1
1428.4 kPa | 1009.2
1489.8 kPa | 1009.2
1539.7 kPa | 1009.3
1615.7 kPa | 1009.3
1656.6 kPa | 1009.4
1676.8 kPa | 1009.3
1697.6 kPa | 1009.4
1715.3 kPa | 1009.4
1736.3 kPa | 1009.5
1758.3 kPa | 1009.4
1780.4 kPa | 1009.4
1799.6 kPa | 1009.4
1823.1 kPa | 1009.5
1842.9 kPa | 1009.5
1866.6 kPa | 1009.7
1891.8 kPa | 1009.5
1912.6 kPa | 1009.6
1937.9 kPa | 1009.6
1964.7 kPa | 1009.5
1987.2 kPa | 1009.6
2014.1 kPa | 1009.7
2042.2 kPa | 1009.7
2065.8 kPa | 1009.6
2094.8 kPa | 1009.6
2125.5 kPa | 1009.8
2150.1 kPa | 1009.9
2180.8 kPa | 1009.8
2213.3 kPa | 1009.7
2247.3 kPa | 1009.8
2275.2 kPa | 1009.8
2308 kPa | 1009.8
2336.8 kPa | 1009.9
2371.5 kPa | 1009.8
2407 kPa | 1009.9
2443.3 kPa | 1009.9
2474.7 kPa | 1010
2513.3 kPa | 1010.1
2553.2 kPa | 1010
2587.6 kPa | 1010.1
2629.4 kPa | 1010
2672.7 kPa | 1009.9
2711.2 kPa | 1010.3
2794.1 kPa | 1010.3
2887.4 kPa | 1010.4
2936.4 kPa | 1010.4
2979.8 kPa | 1010.4
3032.3 kPa | 1010.4
3076.5 kPa | 1010.5
3130.6 kPa | 1010.4
3186.2 kPa | 1010.6
3242.9 kPa | 1010.6
3291.4 kPa | 1010.7
3352.4 kPa | 1010.6
3413.6 kPa | 1010.6
3465.5 kPa | 1010.7
3526.7 kPa | 1010.8
3578 kPa | 1010.8
3651.6 kPa | 1011
3705.3 kPa | 1011
3789.3 kPa | 1010.9
3822.9 kPa | 1011.1
3911.1 kPa | 1011.1
3990.2 kPa | 1011.2
4072.1 kPa | 1011.2
4144 kPa | 1011.3
4183.8 kPa | 1011.4
4214.1 kPa | 1011.4
4417.6 kPa | 1011.4
4449.7 kPa | 1011.6
4486.8 kPa | 1011.6
4507.9 kPa | 1011.5
4727.5 kPa | 1011.7
5057.9 kPa | 1012.1
5072.9 kPa | 1012.3
5076 kPa | 1012
5110.6 kPa | 1012.1
5117 kPa | 1012.1
5126.9 kPa | 1012.1
5150.9 kPa | 1012.2
5159.4 kPa | 1012.3
5175.5 kPa | 1012.1
5176 kPa | 1012.2
5178.4 kPa | 1012.2
5180.5 kPa | 1012.1
5180.7 kPa | 1012
5182.4 kPa | 1012.2
5183.8 kPa | 1012.3
5184.3 kPa | 1012.1
5185 kPa | 1012.1
5185.2 kPa | 1012.1
5185.5 kPa | 1012.2
5186.2 kPa | 1012.2
5187.3 kPa | 1012.1
5188.5 kPa | 1012.1
5189 kPa | 1012.2
5189.9 kPa | 1012.3
5190.4 kPa | 1012.1
5205.3 kPa | 1012.2
5219.3 kPa | 1012.2
5228.9 kPa | 1012.3
5236 kPa | 1012.2
5238.3 kPa | 1012.3
5248 kPa | 1012.2
5250.1 kPa | 1012.2
5252.5 kPa | 1012.2
5253.9 kPa | 1012.3
5256.1 kPa | 1012.2
5266.1 kPa | 1012.1
5282.2 kPa | 1012.2
5294.5 kPa | 1012.3
5310.3 kPa | 1012.2
5338.3 kPa | 1012.2
5338.4 kPa | 1012.1
5368.9 kPa | 1012.1
5399.8 kPa | 1012.4
5401.2 kPa | 1012.4
5439.1 kPa | 1012.3
5471.1 kPa | 1012.4
5509.5 kPa | 1012.4
5540.4 kPa | 1012.4
5575.9 kPa | 1012.5
5603.9 kPa | 1012.4
5635.2 kPa | 1012.6
5666.5 kPa | 1012.5
5693.6 kPa | 1012.5
5727 kPa | 1012.6
5754.8 kPa | 1012.6
5789.8 kPa | 1012.7
5820.2 kPa | 1012.7
5848.2 kPa | 1012.7
5882.8 kPa | 1012.5
5917.3 kPa | 1012.8
5983 kPa | 1012.8
6117.5 kPa | 1013
6146.4 kPa | 1012.8
6179.9 kPa | 1012.9
6208.2 kPa | 1012.9
6243.3 kPa | 1013
6271.8 kPa | 1012.9
6306.4 kPa | 1012.9
6341.3 kPa | 1013
6370.3 kPa | 1013.1
6406.6 kPa | 1013
6437.2 kPa | 1013.1
6473.6 kPa | 1013.1
6511 kPa | 1013.2
6542.8 kPa | 1013.3
6581.3 kPa | 1013.2
6611.2 kPa | 1013.2
6645.7 kPa | 1013.4
6673.9 kPa | 1013.3
6707.9 kPa | 1013.3
6736.2 kPa | 1013.4
6771.5 kPa | 1013.3
6800.7 kPa | 1013.3
6836.3 kPa | 1013.4
6866 kPa | 1013.4
6902.9 kPa | 1013.4
6934 kPa | 1013.6
6971 kPa | 1013.5
7008.4 kPa | 1013.5
7168 kPa | 1013.6
7200.4 kPa | 1013.7
7227.9 kPa | 1013.7
7261.2 kPa | 1013.7
7289.3 kPa | 1013.8
7323.9 kPa | 1013.9
7352.7 kPa | 1013.8
7387.4 kPa | 1014
7416.1 kPa | 1013.9
7450.6 kPa | 1013.8
7480.1 kPa | 1014
7515.7 kPa | 1014
7551.4 kPa | 1013.9
7581.6 kPa | 1013.9
7618.5 kPa | 1014
7649.6 kPa | 1014
7686.9 kPa | 1014
7718.3 kPa | 1014.2
7756.1 kPa | 1014.1
7788.3 kPa | 1014.2
7827 kPa | 1014.2
7866.3 kPa | 1014.2
7899.3 kPa | 1014.2
7932.8 kPa | 1014.4
7972.8 kPa | 1014.4
8013.9 kPa | 1014.3
8090.3 kPa | 1014.4
8125.6 kPa | 1014.5
8169.1 kPa | 1014.4
8205.4 kPa | 1014.5
8246 kPa | 1014.4
8283.5 kPa | 1014.5
8312 kPa | 1014.5
8346.8 kPa | 1014.6
8382.7 kPa | 1014.7
8723.4 kPa | 1014.9
8760.5 kPa | 1014.7
8798.7 kPa | 1014.8
8838.7 kPa | 1014.9
8871 kPa | 1015
8910.3 kPa | 1015.2
8943.4 kPa | 1015
9220.4 kPa | 1015.3
9262.8 kPa | 1015.3
9305.7 kPa | 1015.3
9342.7 kPa | 1015.3
9387.2 kPa | 1015.4
9430.1 kPa | 1015.4
9462.8 kPa | 1015.5
9499 kPa | 1015.3
9535.2 kPa | 1015.5
9572.1 kPa | 1015.6
9751.4 kPa | 1015.7
9783.6 kPa | 1015.7
10212 kPa | 1016
10254 kPa | 1016.1
10297 kPa | 1016.1
10334 kPa | 1015.9
10376 kPa | 1016
10420 kPa | 1016.1
10456 kPa | 1016.3
10500 kPa | 1016.3
10816 kPa | 1016.5
10866 kPa | 1016.5
10904 kPa | 1016.5
11274 kPa | 1016.8
11884 kPa | 1017.2
11921 kPa | 1017.2
11965 kPa | 1017.2
12003 kPa | 1017.3
12047 kPa | 1017.3
12093 kPa | 1017.5
12139 kPa | 1017.3
12178 kPa | 1017.4
12224 kPa | 1017.5
12271 kPa | 1017.5
12318 kPa | 1017.5
14882 kPa | 1019.5
14925 kPa | 1019.6
14968 kPa | 1019.5
15004 kPa | 1019.4
15048 kPa | 1019.5
15500 kPa | 1019.8
15576 kPa | 1019.8
17833 kPa | 1021.6
19181 kPa | 1022.6
19261 kPa | 1022.5
22923 kPa | 1025
23811 kPa | 1025.7
23859 kPa | 1025.7
23900 kPa | 1025.7
23948 kPa | 1025.8
23996 kPa | 1025.8
24046 kPa | 1025.8
25712 kPa | 1027
25761 kPa | 1026.9
25802 kPa | 1027
25851 kPa | 1027.1
25900 kPa | 1027.1
25940 kPa | 1027.1
25989 kPa | 1027.1
26037 kPa | 1027.1
26087 kPa | 1027.3
26128 kPa | 1027.2
26178 kPa | 1027.4
26627 kPa | 1027.5
26673 kPa | 1027.6
26708 kPa | 1027.6
26751 kPa | 1027.6
26793 kPa | 1027.7
26835 kPa | 1027.8
26872 kPa | 1027.7
26914 kPa | 1027.8
